Key:
CHO-K1 (hamster, ovary) = assay: MTT cytotoxicity CHO-K1; assay type: cell-based; details: CHO-K1, 72 h, n = 3
Protocol: All cell types were cultivated at 37 °C with 5% CO2. HepG2, HEK293, HCT116, CHO-K1, HeLa-CCL-2 and Huh-7.5 were purchased from ATCC. The respective cell media (Gibco) were supplemented with 10% FBS (Gibco) before usage. Cells were used between passages #5 and #30. To obtain biological repeats, cells were split separately for at least two passages.
(§1) Cells were washed with PBS and 0.5 mL trypsin was added. Afterwards, cells were incubated for 5 min before adding 10 mL medium containing 10% FBS. Per well, 120 µL cell suspension (5 × 10^4 cells/mL) was seeded in transparent 96-well cell bind plates and incubated for 2 h (37 °C, 5% CO2). A dilution series (1:3) of test compounds was prepared in respective media containing 10% FBS and added (60 µL) to the prepared cell plate. Cells were incubated for a further 72 h (37 °C, 5% CO2). Next, 20 µL MTT (5 mg/mL in PBS) was added to each well and incubated for 2 h (37 °C, 5% CO2). The wells were emptied and 100 µL isopropanol/10 N HCl (1000:4) per well was added.
(§2) The plates were analyzed by measuring the absorbance at 570 nm (plate reader Infinite® 200 Pro, Tecan). After normalization of data to the respective solvent controls, the calculated percentage of growth inhibition was plotted using GraphPad Prism software (version 10.0.2).

[1] = tested on: U2OS (human, osteosarcoma); assay: MTT cytotoxicity U2OS; assay type: cell-based; details: 72 h, n = 3
Protocol: as §1, §2

[2] = target: T1, scavenger receptor class B member 1 (SCARB1) (Homo sapiens, UniProt Q8WTV0); assay: Affinity-based protein profiling (AfBPP), SCARB1; assay type: binding; details: 12.5 µM pre-treatment before Cysto-354 (2.5 µM), HepG2, n = 4
T1 construct: endogenous in cells; host or cells: HepG2
T1 sequence (Q8WTV0 1-509 isoform Q8WTV0-2): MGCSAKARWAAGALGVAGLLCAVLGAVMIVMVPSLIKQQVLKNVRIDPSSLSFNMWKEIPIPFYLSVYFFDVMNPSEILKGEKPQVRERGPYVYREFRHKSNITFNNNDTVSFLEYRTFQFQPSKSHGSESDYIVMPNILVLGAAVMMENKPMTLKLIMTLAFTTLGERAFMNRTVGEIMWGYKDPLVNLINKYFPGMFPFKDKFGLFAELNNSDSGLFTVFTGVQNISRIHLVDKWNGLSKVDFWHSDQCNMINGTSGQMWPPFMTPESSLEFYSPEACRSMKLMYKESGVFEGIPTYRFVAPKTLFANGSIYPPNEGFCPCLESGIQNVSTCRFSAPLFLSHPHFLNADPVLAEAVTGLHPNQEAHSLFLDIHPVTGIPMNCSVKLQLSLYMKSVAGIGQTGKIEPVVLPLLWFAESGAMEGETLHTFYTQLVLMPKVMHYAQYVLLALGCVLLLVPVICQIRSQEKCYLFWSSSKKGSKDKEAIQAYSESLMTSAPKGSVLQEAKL
Protocol: Cells were seeded in 100 mm cell-bind petri dishes with a concentration of 2.8 × 10^6 cells per sample and incubated (37 °C, 5% CO2) for 3 days to reach ~80% confluence. Cells were washed with warm PBS prior to compound addition. Compound solutions as well as the DMSO control were generally added as freshly prepared solutions in pre-warmed, serum-free culture medium. Affinity-based proteome profiling was performed by treating the respective cell line with Cysto-354 (2.5 µM) for 3 h. For competition samples, cells were treated with CN-861-2 (12.5 µM) for 1 h, prior to addition of photo-probe Cysto-354 (2.5 µM) for 3 h incubation time. Control samples were treated with DMSO. Afterwards, cells were UV-irradiated for 10 min on ice, scraped off and transferred to Eppendorf tubes for washing with 1 mL cold PBS (centrifuge 5 min, 500g, 4 °C). The cell pellet was stored at −80 °C until lysis. Further sample preparation was done as previously described. […]
Peptides were measured and online-separated using an UltiMate 3000 nano HPLC system (Dionex) coupled to a Bruker timsTOF Pro mass spectrometer via a CaptiveSpray nano-electrospray ion source and Sonation column oven. […]
MS raw data was analyzed using MaxQuant software (version 2.0.3.0) and peptides were searched against Uniprot database for Homo sapiens (taxon identifier: 9606, downloaded on 11.03.2022, canonical, reviewed). […]

`CO[C@H](C(N)=O)[C@H](NC(=O)c1ccc(NC(=O)c2ccc(C#N)cc2)cc1)C(=O)Nc1ccc(C(=O)Nc2ccc(C(=O)Nc3ccc(C(=O)O)cc3)c(O)c2OC(C)C)cc1` [CN-861-2] was tested, and the IC50 (CHO-K1 (hamster, ovary)) was > 20 µM, the IC50 [1] was > 20 µM and the “competition of SCARB1 enrichment” value [2] was “significant competition”.
